In PubChem BioAssay (NCI):
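In this assay, cells in 96-well plates receive the compound at five concentrations for 48 hours. Endpoints are linearly interpolated between the surrounding concentrations. Here, GI50 denotes the concentration required for 50% inhibition of growth. The concentration for full growth arrest is given as TGI.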

Tests used:
Experiment in all cases: inhibition of tumour cell growth, NCI panel, 48 h
[1] = test system: OVCAR-5 ovarian
[2] = test system: BT-549 breast
[3] = test system: OVCAR-3 ovarian
[4] = test system: SK-OV-3 ovarian
[5] = test system: HCT-116 colon
[6] = test system: ACHN renal
[7] = test system: MCF7 breast
[8] = test system: TK-10 renal
[9] = test system: CCRF-CEM leukemia
[10] = test system: HOP-92 NSCLC
[11] = test system: HS 578T breast
[12] = test system: U251 CNS
[13] = test system: NCI-H226 lung
[14] = test system: RPMI-8226 leukemia
[15] = test system: PC-3 prostate
[16] = test system: HOP-62 NSCLC
[17] = test system: SNB-19 CNS
[18] = test system: UO-31 renal
[19] = test system: T-47D breast
[20] = test system: SK-MEL-28 melanoma
[21] = test system: NCI-H460 lung
[22] = test system: A498 renal
[23] = test system: UACC-62 melanoma
[24] = test system: SK-MEL-5 melanoma
[25] = test system: MDA-MB-435
[26] = test system: COLO 205 colon
[27] = test system: CAKI-1 renal
[28] = test system: M14 melanoma
[29] = test system: EKVX NSCLC
[30] = test system: SF-268 CNS
[31] = test system: MDA-MB-231 breast
[32] = test system: KM12 colon
[33] = test system: OVCAR-4 ovarian
[34] = test system: MOLT-4 leukemia
[35] = test system: NCI/ADR-RES ovarian
[36] = test system: HL-60(TB) leukemia
[37] = test system: A549 NSCLC
[38] = test system: HCT-15 colon
[39] = test system: UACC-257 melanoma
[40] = test system: OVCAR-8 ovarian
[41] = test system: NCI-H522 lung
[42] = test system: 786-0 renal
[43] = test system: MALME-3M melanoma
[44] = test system: SW-620 colon
[45] = test system: SN12C renal
[46] = test system: SNB-75 CNS
[47] = test system: K-562 leukemia
[48] = test system: SR leukemia
[49] = test system: SF-539 CNS
[50] = test system: SF-295 CNS
[51] = test system: RXF 393 renal
[52] = test system: IGROV1 ovarian
[53] = test system: HT29 colon
[54] = test system: SK-MEL-2 melanoma
[55] = test system: HCC-2998 colon
[56] = test system: DU-145 prostate

Which GI50 [1] does the source give for `CCCCCCNC(=O)Oc1ccc(/C(=C(/C)c2ccccc2)c2ccc(OCCN3CCCCCC3)cc2)cc1` here?
Its GI50 is 12.4 µM.

What about the TGI [1] of the same molecule?
Its TGI is 27 µM.

And the GI50 [2]?
The GI50 was 8.55 µM.

What about the TGI [2] of the same molecule?
Its TGI is 21.8 µM.

What about the GI50 [3] of the same molecule?
Its GI50 is 12 µM.

And the TGI [3]?
Its TGI is 28.8 µM.

What about the GI50 [4] of the same molecule?
The GI50 was 13 µM.

And the TGI [4]?
The TGI was 26.4 µM.

And the GI50 [5]?
The GI50 was 4.33 µM.

What about the TGI [5] of the same molecule?
The TGI was 16.9 µM.

What about the GI50 [6] of the same molecule?
Its GI50 is 13.3 µM.

And the TGI [6]?
The TGI was 26.2 µM.

What about the GI50 [7] of the same molecule?
The GI50 was 0.172 µM.

And the TGI [7]?
The TGI was 13.1 µM.

And the GI50 [8]?
Its GI50 is 16.3 µM.

What about the TGI [8] of the same molecule?
The TGI was 30.5 µM.

What about the GI50 [9] of the same molecule?
Its GI50 is 11.5 µM.

What about the TGI [9] of the same molecule?
The TGI was over 100 µM.

And the GI50 [10]?
Its GI50 is 2.9 µM.

And the TGI [10]?
Its TGI is 14.9 µM.

What about the GI50 [11] of the same molecule?
The GI50 was 8.02 µM.

What about the TGI [11] of the same molecule?
Its TGI is 26.9 µM.

And the GI50 [12]?
The GI50 was 7.25 µM.

What about the TGI [12] of the same molecule?
The TGI was 20.7 µM.

What about the GI50 [13] of the same molecule?
Its GI50 is 13.3 µM.

And the TGI [13]?
Its TGI is 28.7 µM.

And the GI50 [14]?
The GI50 was 3.99 µM.

What about the TGI [14] of the same molecule?
Its TGI is 23 µM.

And the GI50 [15]?
The GI50 was 6.2 µM.

What about the TGI [15] of the same molecule?
Its TGI is 20.4 µM.

What about the GI50 [16] of the same molecule?
The GI50 was 13 µM.

What about the TGI [16] of the same molecule?
The TGI was 26.9 µM.

And the GI50 [17]?
The GI50 was 16.6 µM.

What about the TGI [17] of the same molecule?
The TGI was 69.8 µM.

And the GI50 [18]?
The GI50 was 4.02 µM.

What about the TGI [18] of the same molecule?
Its TGI is 17 µM.

What about the GI50 [19] of the same molecule?
Its GI50 is 3.07 µM.

And the TGI [19]?
The TGI was 21 µM.

What about the GI50 [20] of the same molecule?
Its GI50 is 5.98 µM.

And the TGI [20]?
Its TGI is 19.8 µM.

What about the GI50 [21] of the same molecule?
The GI50 was 4.27 µM.

And the TGI [21]?
Its TGI is 16.1 µM.

What about the GI50 [22] of the same molecule?
Its GI50 is 15.7 µM.

What about the TGI [22] of the same molecule?
The TGI was 29.4 µM.

What about the GI50 [23] of the same molecule?
Its GI50 is 9.09 µM.

And the TGI [23]?
Its TGI is 22 µM.

And the GI50 [24]?
Its GI50 is 14.2 µM.

What about the TGI [24] of the same molecule?
Its TGI is 27.6 µM.

And the GI50 [25]?
The GI50 was 10.8 µM.

And the TGI [25]?
The TGI was 23.3 µM.

And the GI50 [26]?
The GI50 was 3.14 µM.

What about the TGI [26] of the same molecule?
Its TGI is 12.1 µM.

What about the GI50 [27] of the same molecule?
Its GI50 is 2.74 µM.

And the TGI [27]?
The TGI was 11.9 µM.

And the GI50 [28]?
Its GI50 is 2.89 µM.

And the TGI [28]?
The TGI was 11.1 µM.

And the GI50 [29]?
Its GI50 is 13.2 µM.

What about the TGI [29] of the same molecule?
Its TGI is 31.2 µM.

What about the GI50 [30] of the same molecule?
Its GI50 is 12.7 µM.

And the TGI [30]?
The TGI was 29.4 µM.

What about the GI50 [31] of the same molecule?
The GI50 was 12.8 µM.

And the TGI [31]?
The TGI was 26.8 µM.

What about the GI50 [32] of the same molecule?
The GI50 was 6.31 µM.

What about the TGI [32] of the same molecule?
Its TGI is 35.6 µM.

What about the GI50 [33] of the same molecule?
The GI50 was 10 µM.

And the TGI [33]?
Its TGI is 23.4 µM.

What about the GI50 [34] of the same molecule?
Its GI50 is 3.48 µM.

What about the TGI [34] of the same molecule?
The TGI was 25 µM.

And the GI50 [35]?
The GI50 was 12.3 µM.

And the TGI [35]?
Its TGI is 28.8 µM.

And the GI50 [36]?
The GI50 was 2.79 µM.

What about the TGI [36] of the same molecule?
The TGI was 17.7 µM.

And the GI50 [37]?
Its GI50 is 12.1 µM.

And the TGI [37]?
Its TGI is 26.4 µM.

And the GI50 [38]?
The GI50 was 2.83 µM.

What about the TGI [38] of the same molecule?
The TGI was 9.61 µM.

And the GI50 [39]?
The GI50 was 3.75 µM.

And the TGI [39]?
Its TGI is 14.5 µM.

And the GI50 [40]?
Its GI50 is 13.1 µM.

And the TGI [40]?
The TGI was 26.6 µM.

And the GI50 [41]?
Its GI50 is 12.6 µM.

And the TGI [41]?
Its TGI is 26 µM.

And the GI50 [42]?
Its GI50 is 5.42 µM.

And the TGI [42]?
Its TGI is 18.7 µM.

And the GI50 [43]?
The GI50 was 7.97 µM.

And the TGI [43]?
Its TGI is 21.5 µM.

What about the GI50 [44] of the same molecule?
The GI50 was 3.18 µM.

And the TGI [44]?
Its TGI is 12.5 µM.

What about the GI50 [45] of the same molecule?
Its GI50 is 10.4 µM.

What about the TGI [45] of the same molecule?
Its TGI is 23.7 µM.

What about the GI50 [46] of the same molecule?
The GI50 was 9.25 µM.

What about the TGI [46] of the same molecule?
The TGI was 21.7 µM.

And the GI50 [47]?
Its GI50 is 2.87 µM.

What about the TGI [47] of the same molecule?
The TGI was over 100 µM.

And the GI50 [48]?
Its GI50 is 2.58 µM.

What about the TGI [48] of the same molecule?
The TGI was 12 µM.

And the GI50 [49]?
Its GI50 is 7.23 µM.

And the TGI [49]?
Its TGI is 21 µM.

What about the GI50 [50] of the same molecule?
The GI50 was 5.74 µM.

What about the TGI [50] of the same molecule?
Its TGI is 18.6 µM.

What about the GI50 [51] of the same molecule?
The GI50 was 2.63 µM.

What about the TGI [51] of the same molecule?
The TGI was 9.11 µM.

What about the GI50 [52] of the same molecule?
Its GI50 is 11.9 µM.

And the TGI [52]?
Its TGI is 27.9 µM.

And the GI50 [53]?
The GI50 was 3.07 µM.

What about the TGI [53] of the same molecule?
Its TGI is 11.1 µM.

What about the GI50 [54] of the same molecule?
The GI50 was 14.1 µM.

What about the TGI [54] of the same molecule?
The TGI was 27.6 µM.

And the GI50 [55]?
The GI50 was 11 µM.

What about the TGI [55] of the same molecule?
The TGI was 23.5 µM.

What about the GI50 [56] of the same molecule?
Its GI50 is 15.7 µM.

And the TGI [56]?
The TGI was 37.7 µM.
